Literature values in patent USRE30496E, “Tripeptide derivatives with central nervous system activity and preparation thereof” (Ayerst, McKenna & Harrison, Ltd., priority 1979, dated 1981).

Assays:
[1] = system: monkeys; settings: literature (Plotnikoff 1973)
[2] = system: behavioral effects of (3,4-dihydroxyphenyl)-L-alanine (L-DOPA); settings: literature (Plotnikoff 1971; Friedman 1973)
[3] = system: effects of oxotremorine; settings: literature (Plotnikoff 1972)
[4] = system: mice; settings: literature (Plotnikoff 1973)
[5] = in vivo

H-L-prolyl-L-leucyl-glycinamide [H--Pro--Leu--Gly--NH2]
reversal of the sedative effects of deserpidine [1]: reverses the sedative effects of deserpidine | potentiation of the behavioral effects of L-DOPA [2]: potentiates the behavioral effects | antagonism of the effects of oxotremorine [3]: antagonizes the effects of oxotremorine | reversal of the sedative effects of deserpidine [4]: reverses the sedative effects of deserpidine | first step in the inactivation [5]: proteolytic cleavage of the Pro-Leu bond
